Results from patent US20100042137A1, “ACUPUNCTURE AND ACUPRESSURE THERAPIES” (priority 2008, published 2010).
Where two headings read alike, the source gives them in different places.

Tests used:
[1] = test system: Patients with Multiple Indications; test: Treatment of patients with multiple indications by injection; pain level x/10; type: in vivo, human; conditions: for Pain level After: 2 cc injected
[2] = test system: Patients with Arthritis; test: Treatment of patients with arthritis by injection at or near acupuncture points; pain level x/10; type: in vivo, human
Excerpt: Treatment of Patients with Arthritis
(i) A patient presented with a 5/10 pain from severe rheumatoid arthritis.
(ii) A patient presented with an 8/10 pain from severe rheumatoid arthritis.
(iii) A patient presented with 8/10 pain from severe rheumatoid arthritis with diffuse joint stiffness, swelling and tenderness.
(i) A patient presented with a pain level of 10/10 from cervical strain due to seronegative rheumatoid arthritis.
(ii) A patient presented with a 7.5/10 pain globally from a seronegative arthritis (unspecified).
A patient presented with a 5/10 pain from bilateral post-traumatic subtalar arthritis.

[3] = test system: human patients
Excerpt: (i) 10/10 pain from sacroilitis.
(ii) 5/10 pain from trochanteric bursitis.
(iii) 7/10 pain from Morton's neuroma.
(iv) 5/10 pain from lateral epicondylitis.

[4] = test system: human patients; remark: listed apart in the source
[5] = test system: human patients; test: Treatments with saline; pain level x/10; type: in vivo; conditions: general observation in parenthesis
Excerpt: (i) A patient presented with a 2/10 rotator cuff tendinopathy.
(ii) 5/10 sacroiliac strain.
(iv) A patient presented with a 6/10 pain globally from severe systemic lupus erthymatosis (SLE).
(v) A patient presented with a 7/10 pain right medial knee pain from pes anserine bursitis.

[6] = test system: Patients with Back, Shoulder, Leg Pain; test: Treatment of patients with back, shoulder, leg pain by injection; pain level x/10; type: in vivo, human
Excerpt: (iv) A patient presented initially with 9/10 mechanical low back pain.
(v) A patient with an L5 radiculopathy complained of a 6/10 low back pain which was unrelieved by trigger point injections, sacroiliac injections and epidurals.
(vii) A patient presented with a 8/10 back pain from lumbar facet arthropathy.
(viii) A patient presented with an 8/10 back pain with radiation down leg from lumbar radiculopathy.
(xii) A patient presented with a 9/10 low back pain and 8/10 shoulder and neck pain.
(ii) A patient presented with a 4/10 pain due to sacroiliac strain.
(ii) A patient presented with a 4/10 neck pain from cervical degenerative disc disease.
(iii) A patient presented with a 9/10 pain globally from cervical spondylotic myelopathy.

[7] = test system: human patients; test: Treatment with epinephrine or Restylane at specific influential points, also in combination with magnets; pain level x/10; type: in vivo
Excerpt: (i) A patient presented with a 6/10 left ankle pain from gout.
(ii) A patient presented with an 8/10 pain and stiffness from Parkinson's disease.
(iii) A patient presented with a 5/10 neck pain and stiffness.
(iv) A patient presented with a 5/10 neck and upper back pain from syringomyelia.
(v) A patient presented with a 5.8/10 right shoulder pain from rotator cuff tendinopathy.
(vi) A patient presented with a 2/10 shoulder pain from a rotator cuff tendinopathy.
(vii) A patient presented with a 10/10 frontal sinus headache which was present for over 1 week.
(viii) A patient presented with a 4/10 tension headache over the temples and neck with photophobia on which is present 2-3 times a week on average.
(ix) A patient presented with 10/10 pain from bilateral tarsal tunnel syndrome.
(x) A patient with chronic radicular left leg pain 6/10.
(i) A patient presented with a 5/10 pain globally especially in the low back.
(ii) A patient presented with a 5/10 pain in the mid back who had never had acupuncture before.
(iii) A patient presented with a 10/10 pain in an amputee with a compound fracture of their femur.
(i) A patient presented with common peroneal neuropathy with a pain level of 9/10.
(ii) Patient with 9/10 back pain from sacroilitis.

## C[C@]12C=CC(=O)C=C1CC[C@H]1[C@@H]3C[C@@H](O)[C@](O)(C(=O)CO)[C@@]3(C)C[C@H](O)[C@@]12F [triamcinolone]
[1]; cervical stenosis 8/10 and lumbosacral strain 7/10, triamcinolone only into GH joints bilaterally
  pain after injection: complete relief

## CCN(CC)CC(=O)Nc1c(C)cccc1C [lidocaine]
[2]; 6/10 shoulder pain (glenohumeral arthritis) and 7/10 low back pain (lumbar stenosis), 2 cc into GH joints bilaterally
  pain after injection: complete pain relief
[2]; 9/10 elbow pain (radiohumeral arthritis) and 10/10 mechanical low back pain, 2 cc into GH joints near Lu 1 bilaterally
  pain after injection: complete relief
[2]; bilateral post-traumatic subtalar arthritis, 5/10 before, 2 cc bilaterally s.c. over GH joints near Lu 1
  pain after injection: disappearance of all pain
[2]; cervical strain due to seronegative rheumatoid arthritis, 10/10 before, 1 cc bilaterally s.c. over GH joints
  pain level after injection: 4/10
[2]; right glenohumeral osteoarthritis 9/10 and 8/10 low back pain (sacroiliac strain), 2 ccs bilaterally into GH joints, agent not given, heading: Injection of Lidocaine
  pain after injection: total relief
[2]; same patient as E13
  duration of pain relief: 3 days
[2]; same patient as E15
  duration of pain relief: 1 week
[2]; same patient, 4/10 before, another 2 cc lidocaine bilaterally s.c. over GH joints
  pain level after injection: 3/10
[2]; seronegative arthritis (unspecified), 7.5/10 globally before, 2 cc bilaterally s.c. over GH joints
  pain after injection: disappearance of all pain
[2]; severe RA, s.c. over GH joints bilaterally
  pain after injection: resolution of all pain
[2]; severe rheumatoid arthritis, 5/10 before, 2 cc bilaterally s.c. over glenohumeral (GH) joints near Lu 1
  pain after injection: disappearance of all pain and return of mobility
[3]; 5/10 pain from lateral epicondylitis, 0.1 cc 2% lidocaine s.c. over lateral epicondyle
  pain after injection: complete pain relief
[3]; 5/10 pain from trochanteric bursitis, 0.1 cc 2% lidocaine bilaterally s.c. over trochanteric bursae
  pain after injection: complete pain resolution
[3]; 7/10 pain from Morton's neuroma, 0.1 cc 2% lidocaine s.c. on dorsal foot between metatarsal heads
  symptoms after injection: complete resolution of symptoms
[3]; 10/10 pain from sacroilitis, 0.1 cc 2% lidocaine s.c. over the sacroiliac joints
  pain after injection: immediate pain cessation and return to full mobility
[3]; same patient
  duration of complete pain relief: 1 days
  duration of complete pain resolution: 3 weeks
  duration of complete resolution of symptoms: 2 weeks
[3]; same patient, magnets put over the two injection sites afterwards
  pain relief still complete at time later: ≥ 10 days
[4]; excessive drooling (sialorrhea), 0.1 cc lidocaine 2% near Li 4
  drooling after injection: cessation of drooling
[4]; narcolepsy, falling asleep in the office, 0.1 cc 2% lidocaine near Li 4
  effect on sleepiness: noticeably woke patient up
[4]; same patient
  duration of cessation of drooling: 2 weeks
  duration of effect: lasted throughout the day
[5]
  effect of unilateral injection over the GH joint: seems to provide analgesia on the opposite side of the body
[1]; 6/10 bilateral shoulder pain, glenohumeral arthritis, 4 ccs into GH joints bilaterally
  shoulder pain level after injection: 1/10
[1]; 6/10 shoulder pain (bilateral rotator cuff tendinopathy) and 6/10 low back pain (lumbar spinal stenosis), 2 cc bilaterally into GH joints
  pain relief: about 50%
[1]; 10/10 post surgical pain from tracheostomy and 6/10 coccygodynia, 2 cc s.c. bilaterally over GH joint
  pain level after injection, right side of the body: 2/10
[1]; Cervical spondylotic myelopathy, Before 9/10
  Pain level After: 1/10
[1]; Chronic pelvic pain of non menstrual origin, Before 6/10
  Pain level After: 0
[1]; Dermatomyositis, Before 6/10
  Pain level After: 2/10
[1]; Knee pain, Before 5/10
  Pain level After: 0
[1]; Lumbar radiculopathy, herniated disk and scatia, Before 8/10
  Pain level After: 0
[1]; Multiple Sclerois with pain in legs, Before 7/10
  Pain level After: 0
[1]; Peptic Ulcer with gnawing epigastric pain, Before 8/10
  Pain level After: 0
[1]; Plantar Fasciitis, Before 6/10
  Pain level After: 0
[1]; Reflex sympathetic dystophy, Before 6/10
  Pain level After: 0
[1]; same patient
  other effects reported by patient: felt more awake, had a better mood, and could breathe easier
[1]; same patient as E44, 6/10 before
  pain level after injection: 3/10
[1]; same patient, 6/10 low back pain, lumbar spinal stenosis, 4 ccs
  low back pain level after injection: 2/10
[1]; same patient, another 2 cc over only the left GH joint
  pain after further injection: disappearance of all pain
[6]; 4/10 neck pain from cervical degenerative disc disease, 2 cc bilaterally s.c. over GH joints
  pain level after injection: 2/10
[6]; 4/10 pain due to sacroiliac strain, 2 cc bilaterally s.c. over GH joints
  pain after injection: disappearance of all pain
[6]; 5/10 back pain due to rupture of the annulus, 2 cc 1% lidocaine into GH joints bilaterally
  pain after injection: no relief
[6]; 6/10 mechanical low back pain before, 2 cc bilaterally into GH joints
  pain level after injection: about 3/10
[6]; 6/10 mechanical low back pain, 2 cc bilaterally into GH joints
  pain relief: about 50%
[6]; 7/10 low back pain due to SI strain before, 2 cc into GH joints bilaterally
  pain level after injection: 4/10
[6]; 8/10 back pain with radiation down leg, lumbar radiculopathy, 2 cc bilaterally s.c. over GH joints
  pain level after injection: 1/10
[6]; 9/10 mechanical low back pain before, 2 cc bilaterally into GH joints, agent not given, heading: Injection of Lidocaine
  pain level after injection: 4/10
[6]; lumbar facet arthropathy, s.c. over GH joints bilaterally
  pain after injection: resolution of pain
[6]; same patient as E28
  follow-up of pain relief: still pain free one week later
[6]; same patient as E34
  other effects stated by patient: felt more awake, alert and had a sense of well-being
[7]; 9/10 back pain from sacroilitis, 0.1 cc lidocaine 2% bilaterally s.c. over sacroiliac joints (B 47, B 23)
  pain after injection: disappearance of all back pain
[7]; same patient
  pain after therapeutic magnets put over the sites of injection: again disappeared
  time after which the pain started to come back: 2 days
